Source: patent publication US6468989B1, “Gel compositions containing metronidazole” (Dow Pharmaceutical Sciences, priority 2000, dated 2002)
Read-outs that look alike come from different tables or passages of the source.

Assays:
[1] = Solubility of imidazole compounds in purified water, 4% HPCD and 4% HECD; format: physicochemical
Procedure: Six sample solutions were prepared as described in Example 1 except as follows. Two groups of three sample solutions each were prepared. […] The solubility of each of the samples was determined as shown in Table 5 and was compared to the solubility of the imidazole in purified water without a solubility enhancer.

[2] = cited from earlier work
[3] = Solubility of metronidazole in aqueous solutions with different HPCD concentrations, estimated by solution stability; format: physicochemical; conditions: 1-day storage at room temperature followed by 1-day storage at 5° C.
Procedure: Various solutions of hydroxypropyl-beta-cyclodextrin (HPCD) were prepared by combining a quantity of HPCD in water to yield the desired concentration of HPCD between 1% w/w and 15% w/w. To each HPCD solution, an excess amount of metronidazole was added. The solutions were placed in a shaker bath at about 60° C. for about 2 hours or more. After shaking, the samples were permitted to cool to room temperature and were stored at 5° C. […]
In accordance with the invention, stable aqueous metronidazole at the following concentrations may be obtained with the following concentrations of HPCD as shown in Table 1 and FIG. 1.

[4] = Solubilization of metronidazole by HPCD, niacinamide and their combination (visual, 1 week storage); format: physicochemical
Procedure: HPCD and niacinamide solutions were prepared and the concentrations of each to obtain a stable 1% metronidazole solution at 5° C. were determined as 5% and 3%, respectively. Then various combinations of HPCD and niacinamide concentrations in aqueous solution containing 1% metronidazole were prepared as in Example 1.
In the combination solutions, HPCD concentration was in the range of 0% to 5% and the concentration range of niacinamide was 0% to 3%. The solutions were kept at room temperature and 5° C. for a week to assess the maintenance of the dissolved state.
For solubilization effects of HPCD and niacinamide combinations, the concentrations of HPCD and niacinamide were determined in 1% metronidazole solutions, which were clear with no precipitate. Metronidazole solubility was visually determined after a week storage. In order to evaluate the solubilization capacity of the HPCD and niacinamide combinations, the niacinamide concentration required to make 1.5% metronidazole in 5% HPCD solution was determined by keeping the solution at 5° C. for 1 week.

SMILES: CC(=O)N1CCN(c2ccc(OCC3COC(Cn4ccnc4)(c4ccc(Cl)cc4Cl)O3)cc2)CC1 (stereo not shown) [Ketoconazole, ketoconazole]
- % w/w solubility [1]: less than 0.01 % w/w
- % w/w solubility ([1]; 4% HECD): 0.03-0.05 % w/w
- % w/w solubility ([1]; 4% HPCD): 0.01-0.03 % w/w

SMILES: C[C@H]1O[C@@H](O[C@H]2[C@@H](O)C[C@H](O[C@H]3[C@@H](O)C[C@H](O[C@H]4CC[C@@]5(C)[C@H](CC[C@@H]6[C@@H]5C[C@@H](O)[C@]5(C)[C@@H](C7=CC(=O)OC7)CC[C@]65O)C4)O[C@@H]3C)O[C@@H]2C)C[C@H](O)[C@@H]1O [digoxin]
- Water solubility combined with BCD relative to combined with HPCD [2]: five times more water soluble

SMILES: Cc1ncc([N+](=O)[O-])n1CCO [Metronidazole, 1-(2-hydroxyethyl)-2-methyl-5-nitroimidazole]
- Solubility of MTZ ([3]; 0.0 % w/w HPCD): 0.7 % w/w
- Solubility of MTZ ([3]; 2.0 % w/w HPCD): 1.0 % w/w
- Solubility of MTZ ([3]; 8.0 % w/w HPCD): 1.5 % w/w
- Solubility of MTZ ([3]; 10.0 % w/w HPCD): 2.0 % w/w
- Solubility of MTZ ([3]; 15.0 % w/w HPCD): 2.5 % w/w
- Appearance of solution ([1]; 4% HECD and metronidazole solution): became yellow
- Appearance of solution ([1]; 4% HPCD and metronidazole solution): remained clear and colorless
- Niacinamide concentration that permitted a 1.5% metronidazole solution ([4]; 5% HPCD): 6%
- Time the 1.5% metronidazole solution stayed clear with no precipitate ([4]; 5% HPCD and 6% niacinamide, 5° C.): 1 week
- Precipitation of 1.5% metronidazole solution ([4]; 5% HPCD, no niacinamide, room temperature): showed a precipitate
- HPCD concentration required to make a stable 1% metronidazole aqueous solution ([4]; HPCD alone, 5° C. for 1 week): 5%
- Precipitation of aqueous solution containing 1% metronidazole ([4]; HPCD reduced to 4% or less, 5° C. for 1 week): showed a precipitation formation
- HPCD concentration giving a stable 1% MTZ solution ([4]; in combination with 0.5% niacinamide): 1.0%
- Niacinamide concentration giving a stable 1% MTZ solution ([4]; in combination with 1.0% HPCD): 0.5%
- Niacinamide concentration required to make 1% metronidazole aqueous solution ([4]; niacinamide alone, 5° C. for 1 week): 3%
- Precipitation of aqueous solution containing 1% metronidazole ([4]; niacinamide reduced to 2% or less, 5° C. for 1 week): showed a precipitation formation

SMILES: CCC(C)n1ncn(-c2ccc(N3CCN(c4ccc(OCC5COC(Cn6cncn6)(c6ccc(Cl)cc6Cl)O5)cc4)CC3)cc2)c1=O (stereo not shown) [Itraconazole, itraconazole]
- % w/w solubility [1]: less than 0.01 % w/w
- Increase in solubility versus purified water [1]: not measurable
